Results: article PMC5073322, “Novel Natural Product-like Caged Xanthones Bearing a Carbamate Moiety Exhibit Antitumor Potency and Anti-Angiogenesis Activity In vivo” (Scientific Reports, 2016)
In brackets after ≈: the same amount, converted by molar mass. Like-named read-outs stand apart in the source and are kept apart here.

Columns and labels:
[1] = tested on: A549/taxol; assay: MTT antiproliferative assay, Taxol-resistant A549; type: cell-based
Protocol: (§2) The inhibition of tumour cell growth was measured by a modified tetrazolium (MTT) salt assay, as previously described[39]. Cells were cultured in a 96-well plate and treated with culture medium alone or different concentrations of the compounds. The cells were incubated for 72 h, and then, the MTT assay reagent was added. After a 4 h incubation, the formazan product was quantitated at 570 nm. The IC50 values (the concentrations that gave rise to 50% inhibition of cell viability) were calculated using GraphPad Prism 6 using a variable slope (four parameters).

[2] = tested on: A549/cisplatin; assay: MTT antiproliferative assay, cisplatin-resistant A549; type: cell-based
[3] = Water solubility by HPLC; type: physicochemical; conditions: for solubility: thermodynamic from solid
Excerpt: The physicochemical characteristics of compounds directly determine their potential drug-like properties. Assessing a compound’s physicochemical properties before performing in vivo evaluations can guide further studies and minimize the time and cost associated with drug discovery. Therefore, parallel to the in vivo study, these solubilities of these compounds in water were experimentally measured using high-performance liquid chromatography (HPLC). Based on the results of full wave scanning, 290 nm was chosen as the maximum absorption wavelength for HPLC detection.
(§1) A HPLC system with an ultraviolet (UV) detector was used to detect the solubility of the compounds. The optimal wavelength was 290 nm. Ethanol/water (85:15) was an efficient eluent at a flow rate of 0.5 mL/min. The compounds were stirred in deionized water overnight to maximize the retention of the compounds in solution. Then, the solutions were filtered and the supernatant was used as a fluid sample for HPLC detection. The permeability (Pe) of some of the compounds was tested with the help of a standard PAMPA (pION), as previously reported. PAMPA was performed on a PAMPA Explorer instrument (pION, Inc., Woburn, MA) with the PAMPA Explorer command software (Version 3.7.4.1). The compounds were diluted to 10 mM with the system solution buffer (pH 7.4). Then, 150 μL of the diluted compound solution was transferred to a UV plate, and the UV spectrum was collected and used as a reference. Then, paint the membrane with 5 μL of gastrointestinal tract (GIT) lipid. The acceptor chamber was filled with 200 μL of acceptor solution buffer, and the donor chamber was filled with 200 μL of diluted compound solution. The PAMPA sandwich was assembled and left at 25 °C for 4 h. The UV spectra (240–500 nm) from the donor and the acceptor were collected. The permeability coefficient was calculated with the PAMPA Explorer Command software (Version 3.7.4.1) based on the area under the curve (AUC) of the reference plate, the donor plate, and the acceptor plate. The permeability coefficient of the compound was tested for four times, and the data are shown as the average values. Ketoprofen (4.5×10^−6 cm/s) and propranolol (112.8×10^−6 cm/s) were used as the standards in this assay.

[4] = Parallel artificial membrane permeability assay (PAMPA); type: in vitro ADME; conditions: for permeability relative to DDO-6101 and GA: PAMPA, different pH values (Fig. 5); for permeability coefficient (Pe): PAMPA standards, 25 °C, 4 h
Protocol: Permeability is another important property that reflects the ability of molecules to diffuse through cell membranes. The permeability coefficients were determined using a standard parallel artificial membrane permeability assay (PAMPA) on a PAMPA Explorer instrument (Pion, Inc., MA, USA)[34].
as §1, with “The compounds were diluted to 10 mM with the system solution buffer (pH 7.4).” left out

[5] = tested on: A549; assay: MTT antiproliferative assay, A549
Protocol: as §2

[6] = tested on: HepG2; assay: MTT antiproliferative assay, HepG2; conditions: read-out: IC50 HepG2
Protocol: as §2

[7] = tested on: HCT116; assay: MTT antiproliferative assay, HCT116
Protocol: as §2

[8] = tested on: MDA-MB-231; assay: MTT antiproliferative assay, MDA-MB-231
Protocol: as §2

[9] = MTT, 72 h; Taxol-resistant A549; read-out: IC50 A549/taxol
[10] = Homo sapiens, MTT, 72 h, read-out: IC50 A549/cisplatin
[11] = deionized water, stirred overnight, HPLC 290 nm, read-out: S, water solubility
[12] = Homo sapiens, A549, 72 h, read-out: IC50 A549
[13] = Homo sapiens, HCT-116, 72 h, read-out: IC50 HCT116
[14] = Homo sapiens, MDA-MB-231, 72 h, read-out: IC50 MDA-MB-231
[15] = read-out: IC50 A549/taxol; MTT, 72 h; Taxol-resistant A549
[16] = deionized water, stirred overnight, HPLC 290 nm
[17] = Homo sapiens, A549, 72 h, read-out: IC50 A549, MTT, 72 h
[18] = read-out: IC50 HCT116, MTT, 72 h
[19] = Homo sapiens, MDA-MB-231, 72 h, read-out: IC50 MDA-MB-231, MTT, 72 h
[20] = read-out: IC50 A549/cisplatin, MTT, 72 h

Row | SMILES | IC50 [1, 9] [µM] | IC50 [2, 10] [µM] | solubility [3, 11] [µM] | IC50 [5, 12] [µM] | IC50 ([6]; Homo sapiens, HepG2, 72 h) [µM] | IC50 [7, 13] [µM] | IC50 [8, 14] [µM] | IC50 [1, 15] [µM] | S, water solubility [3, 16] [µM] | IC50 ([6]; MTT, 72 h) [µM] | also measured
1 | CC(C)=CCC12OC(C)(C)C3CC(C=C4C(=O)c5c(OC(=O)N6CCSC6)cccc5OC431)C2=O (stereo not drawn) [Compound 8i] | 0.82 ± 0.08 | 1.8 ± 0.1 | 20 (≈ 9.91 µg/mL) | 3.38 ± 0.02 | 1.61 ± 0.18 | 1.08 ± 0.02 | 1 ± 0.1 | – | – | – | permeability relative to DDO-6101 and GA [4]: improved the permeability
2 | CC(C)=CCC12OC(C)(C)C3CC(C=C4C(=O)c5c(OC(=O)N(CCO)CCO)cccc5OC431)C2=O (stereo not drawn) [Compound 8j] | 4.25 ± 0.7 | 3.78 ± 0.11 | 60 (≈ 30.7 µg/mL) | 10.24 ± 0.1 | 5.21 ± 0.01 | 4.14 ± 0.05 | 6.2 ± 0.11 | – | – | – | –
3 | CC(C)=CCC12OC(C)(C)C3CC(C=C4C(=O)c5c(OC(=O)N(C(C)C)C(C)C)cccc5OC431)C2=O (stereo not drawn) [Compound 8k] | 6.72 ± 0.53 | 2 ± 0.47 | 30 (≈ 15.2 µg/mL) | 8.96 ± 0.9 | 4.76 ± 0.22 | 4.49 ± 0.77 | 9.1 ± 0.12 | – | – | – | –
4 | CC(C)=CCC12OC(C)(C)C3CC(C=C4C(=O)c5c(OC(=O)N6CCC(N7CCCCC7)CC6)cccc5OC431)C2=O (stereo not drawn) [Compound 8l] | – | – | – | – | – | – | – | 0.61 ± 0.04 | 80 | 0.34 ± 0.27 | fold higher activity against the resistant A549 cell line than A549 ([1]; Taxol-resistant and cisplatin-resistant A549 versus A549): 10–15 fold; IC50 ([2]; Homo sapiens, A549, 72 h, read-out: IC50 A549/cisplatin, MTT, 72 h): 0.98 ± 0.13 µM; permeability relative to DDO-6101 and GA [4]: improved the permeability; IC50 [5, 17]: 10.1 ± 2.1 µM; IC50 [7, 18]: 2.49 ± 0.33 µM; IC50 [8, 19]: 0.88 ± 0.05 µM
5 | CC(C)=CCC12OC(C)(C)C3CC(C=C4C(=O)c5c(OC(=O)N6CCN(C)CC6)cccc5OC431)C2=O (stereo not drawn) [Compound 8m] | – | – | – | – | – | – | – | 1.1 ± 0.05 | 640 | 1.36 ± 0.71 | IC50 [2, 20]: 0.38 ± 0.07 µM; IC50 [5, 17]: 9.97 ± 2.46 µM; IC50 ([7]; Homo sapiens, HCT-116, 72 h, read-out: IC50 HCT116, MTT, 72 h): 8.15 ± 0.7 µM; IC50 [8, 19]: 0.76 ± 0.09 µM
6 | CC(C)=CCC12OC(C)(C)C3CC(C=C4C(=O)c5c(OC(=O)N6CCN(C)CC6)cccc5OC431)C2=O (stereo not drawn) [Compound 8o] | – | – | – | – | – | – | – | 0.51 ± 0.05 | >40000 | 2.8 ± 0.21 | IC50 [2, 20]: 1.14 ± 0.14 µM; IC50 ([5]; read-out: IC50 A549, MTT, 72 h): 14.9 ± 3.6 µM; IC50 [7, 18]: 9.82 ± 0.68 µM; IC50 ([8]; read-out: IC50 MDA-MB-231, MTT, 72 h): 0.66 ± 0.07 µM
7 | COc1cccc2c1C(=O)c1c(O)c3c(c(O)c1C2=O)C[C@@](O)(C(=O)CO)C[C@@H]3O[C@H]1C[C@H](N)[C@H](O)[C@H](C)O1 [Doxorubicin, reference compound] | 0.24 ± 0.02 | 0.19 ± 0.02 | – | 0.17 ± 0.02 | 0.28 ± 0.01 | 0.4 ± 0.04 | 0.49 ± 0.05 | – | – | – | –
8 | CC(C)=CCC[C@]1(C)C=Cc2c(O)c3c(c(CC=C(C)C)c2O1)O[C@]12C(=C[C@@H]4C[C@H]1C(C)(C)O[C@@]2(C/C=C(/C)C(=O)O)C4=O)C3=O [GA, gambogic acid, reference compound] | 0.29 ± 0.04 | 2.5 ± 0.06 | – | 2.02 ± 0.02 | 2.08 ± 0.07 | 0.34 ± 0.08 | 1.5 ± 0.05 | – | – | – | solubility ([3]; water): < 5 µM
9 | CC(C(=O)O)c1cccc(C(=O)c2ccccc2)c1 (stereo not drawn) [Ketoprofen, reference compound] | – | – | – | – | – | – | – | – | – | – | permeability coefficient (Pe) [4]: 4.5 ×10⁻⁶ cm/s
10 | CC(C)NCC(O)COc1cccc2ccccc12 (stereo not drawn) [propranolol, reference compound] | – | – | – | – | – | – | – | – | – | – | permeability coefficient (Pe) [4]: 112.8 ×10⁻⁶ cm/s
